Like-named read-outs stand apart in the source and are kept apart here. Blank lines part the entries; values can stand above or below the compound they belong to.
Assays:
[1] = Ionic forms at physiological pH; type: physicochemical
[2] = mice and baboons; cited from earlier work
[3] = Biodistribution in normal rats (Table 1); type: in vivo, rat; settings: for Bladder, percent of total activity / Carcass, percent of total activity / Intestines, percent of total activity / Kidneys, percent of total activity / Liver, percent of total activity / Stomach, percent of total activity: normal rats
Description: Tracheostomy was performed in an anesthetized rat and the left jugular vein was cannulated with one piece of PE-50 tubing for injection of the ^99m Tc radiopharmaceutical. The bladder was catheterized utilizing heat flared PE-50 tubing for urine collection. […] Each animal was sacrificed at the conclusion of the dynamic study and simultaneous static images of the isolated lungs, heart, liver, spleen, stomach, kidneys, bowel and bladder with urine were acquired as well as a static image of the rat carcass without the organs. Total counts for the injected dose were determined from the sum of the isolated organ counts and the carcass counts decay corrected to the time of organ imaging. Regions of interest were drawn around each organ to determine the percent injected dose in each organ.

[4] = Normal volunteer studies: plasma clearance, urinary excretion, imaging; type: in vivo, human; settings: humans; for Clearance rate (EC/OIH): relative to coinjected OIH
Description: ^99m Tc LL-EC, DD-EC and DL-EC were each evaluated in three normal male volunteers. The HPLC purified complexes and phosphate-buffered saline (pH 7.0) were passed through a SEP-PAK Plus C18 cartridge (primed with 1 ml ethanol) and a sterile Millex-GS 0.22 μm filter unit into a sterile, pyrogen-free empty vial. The final concentration was ~2.0 mCi/2.5 ml and the final pH ranged from 5.7 to 7.4. Test samples of each complex were sterile and pyrogen free. Approximately 2 mCi of each ^99m Tc complex were coinjected with 200 μCi of I-131 OIH and plasma samples were obtained at 5, 10, 15, 20, 30 45, 60 and 90 minutes post injection. The plasma clearances of 1-131 OIH and each EC complex were determined using the single injection, two-compartment model of Sapirstein et al., (1955) Am. J. Physiol. 181: 330-336. The volunteers voided at 30, 90 and 180 minutes post injection to determine the percent dose in the urine at each time period. A urine sample from the 30 minute urine collection was obtained for HPLC analysis from one of the normal volunteers and analyzed for each complex. One volunteer was imaged with each complex using a simultaneous acquisition with a 20% window centered over the 363 KeV photopeak of I-131 and a second 20% window over the 140 KeV photopeak of ^99m Tc. Data were acquired in a 128×128 matrix using a three phase dynamic acquisition: phase 1 consisted of 24 two second frames, phase 2 consisted of 16 fifteen second frames and phase 3 consisted of 40 thirty second frames. Data were acquired using a general Electric (Milwaukee, Wis.) Star-Cam computer fitted with a high energy collimator. All studies were performed with the approval of the Human Investigations Committee and a signed consent form was obtained.

brain = settings: in vivo; cited from earlier work
[5] = mice, baboons, volunteers; cited from earlier work
[6] = cited from earlier work
kidney = experiment: Renal clearance and extraction efficiency in rats; type: in vivo, rat; settings: technetium or rhenium chelate
Description: Clearance was determined by averaging three clearances based on three successive 10 minute urine collections. Clearance=UV/P where U is the urine concentration, V is the urine volume, and P is the plasma concentration. To measure extraction efficiency (EE), a left renal venous blood (0.5 ml) sample was obtained followed by a 3-ml carotid arterial sample. Both blood samples were centrifuged within 5 minutes to obtain a plasma sample. The extraction efficiency was calculated by measuring the difference between the arterial and venous blood sample: EE=(arterial concentration--venous concentrationlarterial concentration). Plasma protein binding (PPB) was determined by ultracentrifugation (Centrifree, Amicon, Inc., Beverly, Mass., micropartition system) of 1 ml arterial plasma. PPB=[1.0-(ultrafiltrate concentration/plasma concentration)]×100.

[7] = Stability of thiourea chelates; type: physicochemical
[8] = cited from earlier work; remark: listed apart in the source
plasma protein = settings: cited from earlier work
kidneys = settings: in vivo; cited from earlier work
[9] = cited from earlier work; remark: listed apart in the source

Dianionic form at physiological pH [1]: 80%
Monoanionic form at physiological pH [1]: 20%
Bladder, percent of total activity ([3]; 22 minutes post injection): 45.6% of total activity
Carcass, percent of total activity ([3]; 22 minutes post injection): 22.6% of total activity
Intestines, percent of total activity ([3]; 22 minutes post injection): 1.8% of total activity
Kidneys, percent of total activity ([3]; 22 minutes post injection): 24.4% of total activity
Liver, percent of total activity ([3]; 22 minutes post injection): 4.5% of total activity
Stomach, percent of total activity ([3]; 22 minutes post injection): < 1% of total activity
Clearance rate (EC/OIH) [4]: 70±3%
Compound: O=C([O-])[C@H](C[S-])NCCN[C@@H](CS)C(=O)[O-].[O]=[Tc+3] [L,L-EC, L,L-ethylenedicysteine]
Comparison with ^99m Tc DD-EC [2]: superior to the enantiomer ^99m Tc DD-EC
Pharmacokinetic properties compared with OIH and MAG3 [2]: more closely approached those of OIH than the properties of MAG3

Compound: ^99m Tc L,L-ethylenedicysteine diethyl ester [^99m Tc LL-ECD]
Brain perfusion (brain): good brain perfusion agent

Rate of excretion in the urine [4]: had a slower rate of excretion
Clearance rate (EC/OIH) [4]: 40±5%
Compound: D,L-ethylenedicysteine [DL-EC]

Compound: C[C@H](NC(=O)CNC(=O)CS)C(=O)NCC(=O)O [MAGAG, mercaptoacetylglycylalanylglycine]
Comparison with ^99m Tc MAG3 [5]: one diastereomer comparable and the other considerably inferior

Compound: ^99m Tc mercaptoacetyl-glycylglycyl-taurine
Comparison with ^99m Tc MAG3 in dogs [6]: inferior to ^99m Tc MAG3 in dogs

Bladder, percent of total activity ([3]; 30 minutes post injection): 58.2% of total activity
Carcass, percent of total activity ([3]; 30 minutes post injection): 19.8% of total activity
Intestines, percent of total activity ([3]; 30 minutes post injection): 6.4% of total activity
Kidneys, percent of total activity ([3]; 30 minutes post injection): 7.2% of total activity
Liver, percent of total activity ([3]; 30 minutes post injection): 4.8% of total activity
Stomach, percent of total activity ([3]; 30 minutes post injection): 1.9% of total activity
Compound: L-cysteinylethylenepyridine carboxamide [L-CEPIC]
Removal/excretion by the kidneys, in words ([3]; rats): rapid and selective removal of the test compounds by the kidneys
Uptake in other major organs ([3]; rats): only trace amounts being taken up in other major organs
Removal/excretion by the kidneys, in words ([3]; rats, listed as 99m Tc-CEPIC): even more rapidly excreted by the kidneys than ^99m Tc MAG3
Renal clearance, in words (kidney): renal clearance efficiency similar to that of ^99m Tc MAG3

Compound: CC(C)(S)C(=O)NCCCNC(=S)NCCC(=O)O [(Me)2 -TAPTU-EtCOOH, dimethylthioacetamidepropylthiourea-ethylCOOH]
Stability compared with the corresponding thioacetamidethiourea derivative [7]: greater stability than the corresponding thioacetamide-thiourea derivative
Stability compared with the corresponding thioacetamidethiourea derivative ([7]; listed as dimethyl-TAPTU-EtCOOH): appeared to be more stable than the corresponding thioacetamidethiourea derivative

Bladder, percent of total activity ([3]; 22 minutes post injection): 57% of total activity
Carcass, percent of total activity ([3]; 22 minutes post injection): 14% of total activity
Intestines, percent of total activity ([3]; 22 minutes post injection): 5% of total activity
Kidneys, percent of total activity ([3]; 22 minutes post injection): 23% of total activity
Liver, percent of total activity ([3]; 22 minutes post injection): 1% of total activity
Stomach, percent of total activity ([3]; 22 minutes post injection): < 1% of total activity
Compound: O=C(O)CNC(=O)CNC(=O)CNC(=O)CS [MAG3, mercaptoacetyltriglycine]
Transport into the small intestine via the hepatobiliary system ([8]; normal volunteers): a small percentage
Transport into the small intestine via the hepatobiliary system ([8]; patients with renal failure): this percentage increases in patients with renal failure
Plasma-protein binding, in words (plasma protein): very high
Extraction rate (kidneys): favorably high extraction rate
Clearance compared to DTPA ([9]; in vivo): higher clearance of MAG3 compared to DTPA
Clearance relative to OIH ([9]; percent of OIH clearance): 50-60%

Compound: O=C(O)C(CS)NCCNC(CS)C(=O)O (stereo not drawn) [EC, ethylene dicysteine]
Protein binding characteristics (plasma protein): favorable protein binding characteristics

Compound: thioacetamidethiourea-ethylCOOH [TATU-EtCOOH]
Renal clearance, in words (kidney): superior renal clearance in rats when compared to a corresponding metal chelate with MAG3

Renal clearance, in words (kidney; listed as TATU-pPh): cleared at a moderate rate
Compound: thioacetamidethiourea-para-phenylCOOH [TATU-pPhCOOH]
Renal clearance, in words (kidney): cleared at a moderate rate by the kidneys in rat

Dianionic form at physiological pH [1]: 80%
Monoanionic form at physiological pH [1]: 20%
Bladder, percent of total activity ([3]; 22 minutes post injection): 63.2% of total activity
Carcass, percent of total activity ([3]; 22 minutes post injection): 25.4% of total activity
Intestines, percent of total activity ([3]; 22 minutes post injection): 2.6% of total activity
Kidneys, percent of total activity ([3]; 22 minutes post injection): 5.4% of total activity
Liver, percent of total activity ([3]; 22 minutes post injection): 2.9% of total activity
Stomach, percent of total activity ([3]; 22 minutes post injection): < 1% of total activity
Removal/excretion by the kidneys, in words ([3]; rats, listed as 99m Tc-D,D-EC): superior to L,L-EC in rats
Clearance rate (EC/OIH) [4]: 82±8%
Compound: O=C(O)[C@@H](CS)NCCN[C@H](CS)C(=O)O [D,D-EC, D,D-ethylenedicysteine]
Removal/excretion by the kidneys, in words ([3]; rats): more rapid renal clearance than ^99m Tc MAG3
Renal clearance, in words (kidney): significantly higher than that of its LL-isomer and than that of ^99m Tc MAG3

Compound: O=C(O)CNC(=O)c1ccccc1[131I] [OIH, ^131 I-orthohippurate]
Clearance relative to p-aminohippuric acid (PAH) ([9]; percent of PAH clearance): 83%
